Measured values published in ChEMBL document CHEMBL3046252, “Synthesis and herbicidal potential of substituted aurones” (2012).

Key:
Assay type in all cases: functional
[1] = test system: Brassica rapa subsp. oleifera; experiment: Herbicidal activity against Brassica rapa subsp. oleifera assessed as inhibition of root growth at 1000 ug/ml after 65 hr by rape cup test; settings: read-out: GI
Digitaria sanguinalis [2] = experiment: Post-emergence herbicidal activity against Digitaria sanguinalis (hairy crabgrass) seedlings assessed as inhibition of plant fresh weight growth at 1500 g/ha applied through spraying under greenhouse conditions; settings: read-out: GI
Echinochloa crus-galli [3] = experiment: Pre-emergence herbicidal activity against Echinochloa crus-galli (barnyard grass) assessed as inhibition of plant fresh weight growth at 1500 g/ha applied to soil through spraying under greenhouse conditions; settings: read-out: GI
[4] = test system: Brassica rapa subsp. oleifera; experiment: Pre-emergence herbicidal activity against Brassica rapa subsp. oleifera assessed as inhibition of plant fresh weight growth at 1500 g/ha applied to soil through spraying under greenhouse conditions; settings: read-out: GI
Paraixeris denticulata [5] = experiment: Herbicidal activity against Paraixeris denticulata assessed as germination rate at 1000 ug/ml measured on fourth day post dose (reference value: 100%)
Echinochloa crus-galli [6] = experiment: Herbicidal activity against Echinochloa crus-galli (barnyard grass) plants assessed as inhibition of seedling growth at 100 ug/ml after 65 hr by barnyard cup test; settings: read-out: GI
Paraixeris denticulata [7] = experiment: Herbicidal activity against Paraixeris denticulata assessed as germination rate at 1000 ug/ml measured on first day post dose (reference value: 30.8 +/- 1.2%)
Echinochloa crus-galli [8] = experiment: Post-emergence herbicidal activity against Echinochloa crus-galli (barnyard grass) seedlings assessed as inhibition of plant fresh weight growth at 1500 g/ha applied through spraying under greenhouse conditions; settings: read-out: GI
Digitaria sanguinalis [9] = experiment: Pre-emergence herbicidal activity against Digitaria sanguinalis (hairy crabgrass) assessed as inhibition of plant fresh weight growth at 1500 g/ha applied to soil through spraying under greenhouse conditions; settings: read-out: GI
Echinochloa crus-galli [10] = experiment: Herbicidal activity against Echinochloa crus-galli (barnyard grass) plants assessed as inhibition of seedling growth at 1000 ug/ml after 65 hr by barnyard cup test; settings: read-out: GI
[11] = test system: Brassica rapa subsp. oleifera; experiment: Herbicidal activity against Brassica rapa subsp. oleifera assessed as inhibition of root growth at 100 ug/ml after 65 hr by rape cup test; settings: read-out: GI
Amaranthus retroflexus [12] = experiment: Pre-emergence herbicidal activity against Amaranthus retroflexusassessed as inhibition of plant fresh weight growth at 1500 g/ha applied to soil through spraying under greenhouse conditions; settings: read-out: GI
Amaranthus retroflexus [13] = experiment: Post-emergence herbicidal activity against Amaranthus retroflexus seedlings assessed as inhibition of plant fresh weight growth at 1500 g/ha applied through spraying under greenhouse conditions; settings: read-out: GI
Echinochloa crus-galli [14] = experiment: Herbicidal activity against Echinochloa crus-galli (barnyard grass) plants assessed as germination rate at 1000 ug/ml measured on first day post dose (reference value: 49.1 +/- 1.6%)
Echinochloa crus-galli [15] = experiment: Herbicidal activity against Echinochloa crus-galli (barnyard grass) plants assessed as germination rate at 1000 ug/ml measured on second day post dose (reference value: 100%)
[16] = test system: Brassica rapa subsp. oleifera; experiment: Post-emergence herbicidal activity against Brassica rapa subsp. oleifera seedlings assessed as inhibition of plant fresh weight growth at 1500 g/ha applied through spraying under greenhouse conditions; settings: read-out: GI
Paraixeris denticulata [17] = experiment: Herbicidal activity against Paraixeris denticulata assessed as germination rate at 1000 ug/ml measured on third day post dose (reference value: 97.4 +/- 0.6%)
Paraixeris denticulata [18] = experiment: Herbicidal activity against Paraixeris denticulata assessed as germination rate at 1000 ug/ml measured on second day post dose (reference value: 76.7 +/- 0.3%)
Digitaria sanguinalis [19] = experiment: Herbicidal activity against Digitaria sanguinalis (hairy crabgrass) assessed as germination rate at 1000 ug/ml measured on second day post dose (reference value: 100%)
Digitaria sanguinalis [20] = experiment: Herbicidal activity against Digitaria sanguinalis (hairy crabgrass) assessed as germination rate at 1000 ug/ml measured on third day post dose (reference value: 100%)
[21] = test system: Brassica rapa subsp. oleifera; experiment: Herbicidal activity against Brassica rapa subsp. oleifera assessed as inhibition of root growth at 10 ug/ml after 65 hr by rape cup test; settings: read-out: GI
Digitaria sanguinalis [22] = experiment: Herbicidal activity against Digitaria sanguinalis (hairy crabgrass) assessed as germination rate at 1000 ug/ml measured on first day post dose (reference value: 0%)
[23] = test system: Brassica rapa subsp. oleifera; experiment: Pre-emergence herbicidal activity against Brassica rapa subsp. oleifera assessed as inhibition of plant fresh weight growth at 150 g/ha applied to soil through spraying under greenhouse conditions; settings: read-out: GI
Echinochloa crus-galli [24] = experiment: Pre-emergence herbicidal activity against Echinochloa crus-galli (barnyard grass) assessed as inhibition of plant fresh weight growth at 150 g/ha applied to soil through spraying under greenhouse conditions; settings: read-out: GI
Digitaria sanguinalis [25] = experiment: Pre-emergence herbicidal activity against Digitaria sanguinalis (hairy crabgrass) assessed as inhibition of plant fresh weight growth at 150 g/ha applied to soil through spraying under greenhouse conditions; settings: read-out: GI
Echinochloa crus-galli [26] = experiment: Post-emergence herbicidal activity against Echinochloa crus-galli (barnyard grass) seedlings assessed as inhibition of plant fresh weight growth at 150 g/ha applied through spraying under greenhouse conditions; settings: read-out: GI
[27] = test system: Brassica rapa subsp. oleifera; experiment: Post-emergence herbicidal activity against Brassica rapa subsp. oleifera seedlings assessed as inhibition of plant fresh weight growth at 150 g/ha applied through spraying under greenhouse conditions; settings: read-out: GI
Digitaria sanguinalis [28] = experiment: Post-emergence herbicidal activity against Digitaria sanguinalis (hairy crabgrass) seedlings assessed as inhibition of plant fresh weight growth at 150 g/ha applied through spraying under greenhouse conditions; settings: read-out: GI
Amaranthus retroflexus [29] = experiment: Post-emergence herbicidal activity against Amaranthus retroflexus seedlings assessed as inhibition of plant fresh weight growth at 150 g/ha applied through spraying under greenhouse conditions; settings: read-out: GI
Amaranthus retroflexus [30] = experiment: Pre-emergence herbicidal activity against Amaranthus retroflexus assessed as inhibition of plant fresh weight growth at 150 g/ha applied to soil through spraying under greenhouse conditions; settings: read-out: GI

SMILES | inhibition of growth at 1000 µg/mL [1] [%] | inhibition of growth at 1500 g/ha (Digitaria sanguinalis [2]) [%] | inhibition of growth at 1500 g/ha (Echinochloa crus-galli [3]) [%] | inhibition of growth at 1500 g/ha [4] [%] | Activity (Paraixeris denticulata [5]) [%] | inhibition of growth at 100 µg/mL (Echinochloa crus-galli [6]) [%] | Activity (Paraixeris denticulata [7]) [%] | inhibition of growth at 1500 g/ha (Echinochloa crus-galli [8]) [%] | inhibition of growth at 1500 g/ha (Digitaria sanguinalis [9]) [%] | inhibition of growth at 1000 µg/mL (Echinochloa crus-galli [10]) [%] | inhibition of growth at 100 µg/mL [11] [%] | inhibition of growth at 1500 g/ha (Amaranthus retroflexus [12]) [%] | inhibition of growth at 1500 g/ha (Amaranthus retroflexus [13]) [%] | Activity (Echinochloa crus-galli [14]) [%] | Activity (Echinochloa crus-galli [15]) [%] | inhibition of growth at 1500 g/ha [16] [%] | Activity (Paraixeris denticulata [17]) [%] | Activity (Paraixeris denticulata [18]) [%] | Activity (Digitaria sanguinalis [19]) [%] | inhibition of growth at 10 µg/mL [21] [%] | other results
COc1cc(OC)c2c(c1)O/C(=C\c1ccccc1F)C2=O | 86.8 | 0 | 15 | 0 | 100 | 15 | 17.8 | 6.5 | 0 | 45 | 74.7 | 10 | 40.1 | 11.4 | 100 | 0 | 76.7 | 58.9 | – | – | –
CCOc1cc(OCC)c2c(c1)O/C(=C\c1ccc(OCc3ccccc3)c(OC)c1)C2=O | 72.6 | 5 | 0 | 0 | – | 15 | – | 7.9 | 10 | 26.7 | 79.2 | 5 | 0 | – | – | 0 | – | – | – | – | –
COc1cc(/C=C2\Oc3cc(OC)c(C)c(OC)c3C2=O)ccc1OCc1ccccc1 | 99.5 | – | – | – | 100 | 19 | 12.1 | – | – | 45.1 | 71.7 | – | – | 16.3 | 100 | – | 91.7 | 65.5 | 38.9 | 42.6 | Activity (Digitaria sanguinalis [20]): 100%; Activity (Digitaria sanguinalis [22]): 0%
COc1cc(OC)c2c(c1)O/C(=C\c1ccccc1)C2=O | 91.4 | 0 | 10 | 0 | 100 | 0 | 2.5 | 0 | 0 | 20 | 88.5 | 0 | 42.2 | 18.8 | 100 | 15 | 95 | 75.7 | 22.5 | 81.3 | Activity (Digitaria sanguinalis [20]): 100%; Activity (Digitaria sanguinalis [22]): 0%
CS(=O)(=O)c1ccc(C(=O)C2C(=O)CCCC2=O)c([N+](=O)[O-])c1 [MESOTRIONE] | 93.4 | – | – | – | – | 90.5 | – | – | – | 96.1 | 89.7 | – | – | – | – | – | – | – | – | 80.3 | inhibition of growth at 150 g/ha [23]: 97.8%; inhibition of growth at 150 g/ha (Echinochloa crus-galli [24]): 92.5%; inhibition of growth at 150 g/ha (Digitaria sanguinalis [25]): 100%; inhibition of growth at 150 g/ha (Echinochloa crus-galli [26]): 86.7%; inhibition of growth at 150 g/ha [27]: 100%; inhibition of growth at 150 g/ha (Digitaria sanguinalis [28]): 100%; inhibition of growth at 150 g/ha (Amaranthus retroflexus [29]): 100%; inhibition of growth at 150 g/ha (Amaranthus retroflexus [30]): 97.9%
CCc1cccc(C)c1N(C(=O)CCl)C(C)COC (configuration not stated) [METOLACHOR] | – | 46.3 | 100 | 88.3 | – | – | – | 54 | 100 | – | – | 100 | 66.4 | – | – | 100 | – | – | – | – | –
